# Laboratory results reported in US20150209309A1, “NACA FOR THE TREATMENT OF CHRONIC OR ACUTE COGNITIVE DYSFUNCTION” (Brighton Biotech, Inc, priority 2014, published 2015).
# Key:
# [1] = in vivo
# [2] = cited from earlier work
smiles,measurement,setting,value
"CC(=O)N[C@@H](CS)C(=O)O [NAC, N-acetyl-L-cysteine]",crossing of the blood-brain barrier,[1],inability to cross the blood-brain barrier
same,membrane penetration / cell permeability,[2],low membrane penetration
